Results taken from patent publication US7495098B2, “Extraction of alkaloids from opium” (Mallinckrodt Inc, priority 2004, dated 2009).

Legend:
[1] = Alkaloid partition coefficients, pH 3.0 (mixing cylinder liquid extraction of opium filtrate, HPLC assay of layers); type: physicochemical
Source text: The next part of the experiment was to test various solvents to identify possible candidates for liquid extraction so that the alkaloids can be separated and purified. There was fifty (50) milliliters of filtrate and fifty (50) milliliters of solvent were charged to one hundred (100) milliliter mixing cylinders. The one hundred (100) milliliter cylinders were shaken for thirty (30) seconds at approximately one (1) shake per second. The one hundred (100) milliliter mixing cylinders were allowed to settle, and the locations of the bottom and top of the rag layer were recorded over time. The results for one trial of the hydrochloric acid extraction of opium is presented in Table 2, and the results of one trial of acetic acid extraction is presented in Table 3. The four solvents used were toluene, hexane, n-butanol (n-BuOH), and isopentyl alcohol (i-C5OH).
After the mixing cylinder studies were completed, the layers were sampled for High Pressure Liquid Chromatography (HPLC) assay and partition coefficients were obtained for each of the systems.

[2] = Alkaloid partition coefficients, pH 9.0 (acetic acid opium extract and organic solvent, equal volumes)
Protocol: Some experiments were conducted with solvents to investigate liquid extraction to purify or separate the alkaloids. In these experiments, the aliquot of solvent layer was allowed to evaporate to dryness prior to diluting to volume with the dilute acetic acid. The aliquots were evaporated in this manner to eliminate the effect of solvents on retention time and the peak shape of the chromatography assays. Partition coefficients were obtained by dividing the concentration of the alkaloid in the organic layer by the concentration of the alkaloid in the aqueous layer. The disappearance of the rag layer following liquid extraction was done by filing a mixing container, e.g., cylinder, with the aqueous solution and the solvent. The mixing container, e.g., cylinder is then sealed with a stopper and shook for a predetermined time interval at a certain rate and then recording the interface levels over time.
The phases were allowed to separate, and aliquots of each layer were taken.

[3] = Stability of alkaloids in the acid digest of opium suspension at pH 3.0, room temperature; conditions: pH 3.0, up to 96 hours
Protocol: The purpose of Experiment I was to obtain side-by-side data of the performance of hydrochloric acid in relationship to acetic acid. The acid digestion occurred at room temperature for 96 hours. The opium suspensions were sampled at intervals, and assays were performed to test the rate of extraction of alkaloids from the opium.
The opium was dispersed by adding one liter of deionized water and 238 grams of opium to the blender. The blender was processed on “puree.” This is at 14,046 RPM, or a Reynold's number of 725,791 for two (2) minutes. The slurry was divided between two Erlenmeyer flasks. A tar ball remained in the bottom of the blender. The next step was to add 100 milliliters of water. The blender was then set to “liquefy.” This is at 20,495 RPM, or a Reynold's number of 991,216 for thirty (30) seconds. There was not an even distribution between the two Erlenmeyer flasks. This was followed by returning all of the slurry to the blender and processed on “liquefy” for an additional ten (10) seconds. The slurry was then split between the two Erlenmeyer flasks. The slurry was very frothy in appearance. The pH of each Erlenmeyer flask was adjusted to 3.0. In one Erlenmeyer flask, the pH was adjusted with hydrochloric acid (37%), and in the other Erlemneyer flask, the pH was adjusted with glacial acetic acid. […]

[4] = system BuOH/HCl (n-butanol, hydrochloric acid extract)
[5] = system BuOH/HOAc (n-butanol, acetic acid extract)
[6] = system CHCL3/HCl (chloroform, hydrochloric acid extract)
[7] = system CHCL3/HOAc (chloroform, acetic acid extract)
[8] = system I-pentyl/HCL (isopentyl alcohol, hydrochloric acid extract)
[9] = system I-pentyl/HOAc (isopentyl alcohol, acetic acid extract)

Structure (SMILES) | Portion of morphine originally present that decomposed (after 24 hours, extraction with butanol at pH 9.0 (FIG. 3)) | Decomposition during the extraction step (alkaline extraction with n-butanol and i-pentyl alcohol, pH 9.0, room temperature) | Alkaloid partition coefficient (concentration in organic layer / concentration in aqueous layer) [1, 4] | Alkaloid partition coefficient (concentration in organic layer / concentration in aqueous layer) [1, 5] | Alkaloid partition coefficient (concentration in organic layer / concentration in aqueous layer) [1, 6] | Alkaloid partition coefficient (concentration in organic layer / concentration in aqueous layer) [1, 7] | Alkaloid partition coefficient (concentration in organic layer / concentration in aqueous layer) [1, 8] | Alkaloid partition coefficient (concentration in organic layer / concentration in aqueous layer) [1, 9] | Alkaloid partition coefficient ([2]; system BuOH/HOAc) | Alkaloid partition coefficient ([2]; system Hexane/HOAc) | Alkaloid partition coefficient ([2]; system I-pentyl/HOAc) | Alkaloid partition coefficient ([2]; system Toluene/HOAc) | Stability (loss of alkaloid) in solution [3]
CN1CC[C@]23c4c5ccc(O)c4O[C@H]2[C@@H](O)C=C[C@H]3[C@H]1C5 [Morphine, morphine] | about half | decomposed | – | – | – | – | – | – | – | – | – | – | –
COc1ccc2c3c1O[C@H]1[C@@H](O)C=C[C@H]4[C@@H](C2)N(C)CC[C@@]341 [Codeine, codeine] | – | – | 0.1374 | 0.2277 | 0.0074 | 0.0341 | 0.0181 | 0.0319 | 18.9714 | 0.0735 | 19.6646 | 5.3686 | does not appear to be any significant loss
COC1=CC=C2[C@H]3Cc4ccc(OC)c5c4[C@@]2(CCN3C)[C@H]1O5 [Thebaine, thebaine] | – | – | 0.4312 | 0.6351 | 0.5363 | 1.5273 | 0.1053 | 0.1548 | 34.7434 | 1.8589 | 55.5035 | 154.6710 | does not appear to be any significant loss
